In paper PMC7044277 (Nature Communications, 2020):
Values joined by “and” are separate entries in the source; they are usually repeats but may differ in a detail not shown here. Equal values may be shown once. Read-outs that look alike come from different tables or passages of the source.

Tests used:
DRD2 F1103.28A [1] = target: T1, DRD2 F1103.28A (Homo sapiens, UniProt P14416, F110A); experiment: β-arrestin2 recruitment (Tango), mutant; assay type: cell-based; design: expressed in transfected cells; host or cells: HEK293T (ATCC CRL-11268)
T1 sequence (P14416 whole entry F110A): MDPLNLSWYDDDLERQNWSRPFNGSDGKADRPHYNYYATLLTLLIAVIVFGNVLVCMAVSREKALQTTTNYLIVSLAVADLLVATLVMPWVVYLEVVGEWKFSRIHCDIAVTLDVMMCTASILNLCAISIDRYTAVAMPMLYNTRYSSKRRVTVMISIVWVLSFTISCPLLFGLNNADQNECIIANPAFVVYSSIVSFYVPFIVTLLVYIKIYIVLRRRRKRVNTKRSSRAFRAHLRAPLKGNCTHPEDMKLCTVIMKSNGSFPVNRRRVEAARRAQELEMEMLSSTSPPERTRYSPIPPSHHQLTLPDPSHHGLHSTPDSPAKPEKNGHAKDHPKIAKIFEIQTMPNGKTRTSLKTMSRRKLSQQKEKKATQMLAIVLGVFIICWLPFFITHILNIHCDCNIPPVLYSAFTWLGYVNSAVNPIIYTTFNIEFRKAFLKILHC

DRD2 (D2 long receptor) [2] = target: T2, DRD2 (D2 long receptor) (Homo sapiens, UniProt P14416); experiment: β-arrestin2 recruitment (Tango), HTLA cells; assay type: cell-based; conditions: for EC50: β-arrestin2 recruitment (Tango), read-out: EC50 ± SEM; for response, Fig_S11e dose-response source data: replicate values
T2 sequence (P14416 whole entry): as the sequence (P14416 whole entry F110A) above, with A110F counted along it

DRD3 F1063.28A [3] = target: T3, DRD3 F1063.28A (Homo sapiens, UniProt P35462, F106A); experiment: cell-based; assay type: cell-based
T3 sequence (P35462 whole entry F106A): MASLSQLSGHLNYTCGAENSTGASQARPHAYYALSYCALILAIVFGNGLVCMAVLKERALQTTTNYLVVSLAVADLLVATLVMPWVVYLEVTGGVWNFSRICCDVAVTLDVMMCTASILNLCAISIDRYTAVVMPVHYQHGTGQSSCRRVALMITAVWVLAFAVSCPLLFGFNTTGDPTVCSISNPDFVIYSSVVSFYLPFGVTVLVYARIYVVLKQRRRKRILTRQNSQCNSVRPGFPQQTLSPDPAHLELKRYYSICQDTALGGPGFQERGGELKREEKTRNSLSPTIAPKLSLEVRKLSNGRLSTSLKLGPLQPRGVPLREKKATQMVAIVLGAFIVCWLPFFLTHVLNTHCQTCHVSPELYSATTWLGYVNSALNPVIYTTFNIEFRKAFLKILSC

DRD4 (D4.4 variant) [4] = target: T4, DRD4 (D4.4 variant) (Homo sapiens, UniProt P21917); experiment: β-arrestin2 recruitment (Tango); assay type: cell-based; conditions: DRD4, Tango; for EC50: read-out: EC50 ± SEM
T4 sequence (P21917 1-419): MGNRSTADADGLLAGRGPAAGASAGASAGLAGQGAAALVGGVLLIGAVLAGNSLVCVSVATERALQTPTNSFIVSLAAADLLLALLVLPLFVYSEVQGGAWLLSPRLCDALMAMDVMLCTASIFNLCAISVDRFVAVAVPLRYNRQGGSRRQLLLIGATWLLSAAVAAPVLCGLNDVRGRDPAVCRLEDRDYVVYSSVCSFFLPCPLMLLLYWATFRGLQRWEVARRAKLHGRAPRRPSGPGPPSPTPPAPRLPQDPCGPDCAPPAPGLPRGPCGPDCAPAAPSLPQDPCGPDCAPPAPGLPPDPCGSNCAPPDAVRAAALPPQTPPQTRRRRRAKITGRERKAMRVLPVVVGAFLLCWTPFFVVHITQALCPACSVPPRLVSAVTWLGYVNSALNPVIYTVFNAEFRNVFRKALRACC

DRD3 F1063.28A [5] = target: T3, DRD3 F1063.28A; experiment: biochemical; assay type: binding
DRD2 F1103.28L [6] = target: T5, DRD2 F1103.28L (Homo sapiens, UniProt P14416, F110L); experiment: Gαi/o-mediated cAMP inhibition (GloSensor), mutant; assay type: cell-based; conditions: for EC50: DRD2 F1103.28L (b138 head prints DRD2 F1063.28L)
T5 construct: expressed in transfected cells; host or cells: HEK293T (ATCC CRL-11268)
T5 sequence (P14416 whole entry F110L): as the sequence (P14416 whole entry F110A) above, with A110L counted along it

DRD2 (D2 long receptor) [7] = target: T2, DRD2 (D2 long receptor); experiment: Gαi/o-mediated cAMP inhibition (GloSensor split-luciferase cAMP reporter), HEK293T; assay type: cell-based; conditions: for EC50: agonist, Gαi/o-mediated cAMP inhibition, read-out: EC50 ± SEM; for response, Fig_S11d dose-response source data: replicate values;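 as to all read-outs here: compounds applied 15 min at room temperature, then luciferin plus 400 nM isoproterenol to raise cAMP through endogenous β2-adrenergic receptors, luminescence read 15 min later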
DRD2 F1103.28L [8] = target: T5, DRD2 F1103.28L; experiment: β-arrestin2 recruitment (Tango), mutant; assay type: cell-based
[9] = target: T6, DRD4 (D4.4 variant) wild-type (Homo sapiens, UniProt P21917); experiment: Radioligand competition binding, [3H]-N-methylspiperone; conditions: DRD4; [3H]-methylspiperone (0.8-1.0 nM); read-out: Ki
T6 sequence (P21917 1-419): T4 sequence (P21917 1-419)

[10] = target: DRD2 (D2 long receptor) wild-type (Homo sapiens, UniProt P14416); experiment: Radioligand competition binding, [3H]-N-methylspiperone, HEK293T membranes; conditions: DRD2; [3H]-methylspiperone (0.8-1.0 nM); read-out: Ki
Sequence of DRD2 (D2 long receptor) wild-type (P14416 whole entry): as the sequence (P14416 whole entry F110A) above, with A110F counted along it

DRD4 (D4.4 variant) [11] = target: T4, DRD4 (D4.4 variant); experiment: Gαi/o-mediated cAMP inhibition (GloSensor); assay type: cell-based; conditions: DRD4; agonist, cAMP inhibition; read-out: EC50 ± SEM
DRD3 wild-type = DRD3 wild-type (Homo sapiens, UniProt P35462); experiment: Radioligand competition binding, [3H]-N-methylspiperone
Sequence of DRD3 wild-type (P35462 whole entry): as the sequence (P35462 whole entry F106A) above, with A106F counted along it

DRD2 F1103.28A [12] = target: T1, DRD2 F1103.28A; experiment: Gαi/o-mediated cAMP inhibition (GloSensor), mutant; assay type: cell-based; design: expressed in transfected cells; host or cells: HEK293T (ATCC CRL-11268)
DRD3 = DRD3 (Homo sapiens, UniProt P35462); experiment: β-arrestin2 recruitment (Tango); assay type: cell-based; conditions: DRD3, Tango; for EC50: read-out: EC50 ± SEM
Sequence of DRD3 (P35462 whole entry): as the sequence (P35462 whole entry F106A) above, with A106F counted along it

DRD2 F1103.28A [13] = target: T1, DRD2 F1103.28A; assay type: binding; design: expressed in transfected cells; host or cells: HEK293T (ATCC CRL-11268); conditions: for Ki: DRD2 F1103.28A
[14] = read-out: Emax relative to quinpirole response

CCOc1cccc2cc(C(C)NCC3(O)CCCCCCC3)oc12 (stereo not shown) [O4LE8]
EC50 (DRD2 F1103.28A [1]): > 10 µM
EC50 (DRD2 (D2 long receptor) [2]; DRD2): 0.958 ± 0.554 µM
response, Fig_S11e dose-response source data (DRD2 (D2 long receptor) [2]; Log[Drug] -6.52): 25.1709
response, Fig_S11e dose-response source data (DRD2 (D2 long receptor) [2]; Log[Drug] -7): 14.6742 and 15.2038 and 14.2094 and 15.768 and 13.8247 and 10.963 and 9.8559 and 9.763 and 11.4407
response, Fig_S11e dose-response source data (DRD2 (D2 long receptor) [2]; Log[Drug] -7.52): 7.064 and 7.803 and 7.822 and 6.018 and 6.959 and 8.6294 and 5.868 and 6.2292 and 7.2281
response, Fig_S11e dose-response source data (DRD2 (D2 long receptor) [2]; Log[Drug] -8): 5.7468 and 5.978 and 6.62 and 5.455 and 5.722 and 6.021 and 5.454 and 5.678 and 6.204
response, Fig_S11e dose-response source data (DRD2 (D2 long receptor) [2]; Log[Drug] -8.52): 5.4648 and 5.687 and 6.826 and 4.883 and 5.2931 and 6.0726 and 5.125 and 5.623 and 6.271
response, Fig_S11e dose-response source data (DRD2 (D2 long receptor) [2]; Log[Drug] -9): 5.367 and 5.481 and 6.509 and 5.152 and 5.102 and 5.412 and 5.069 and 5.184 and 5.586
response, Fig_S11e dose-response source data (DRD2 (D2 long receptor) [2]; Log[Drug] -9.52): 5.23 and 5.307 and 5.645 and 4.9908 and 4.966 and 5.083 and 5.0713 and 4.923 and 5.288
response, Fig_S11e dose-response source data (DRD2 (D2 long receptor) [2]; Log[Drug] -10): 5.15 and 5.211 and 5.175 and 4.9 and 4.98 and 4.8838 and 4.832 and 4.97 and 4.906
response, Fig_S11e dose-response source data (DRD2 (D2 long receptor) [2]; Log[Drug] -10.52): 5.0534 and 4.953 and 5.08 and 4.774 (2×) and 4.9 and 4.962 and 4.816 and 4.832
response, Fig_S11e dose-response source data (DRD2 (D2 long receptor) [2]; Log[Drug] -11): 5.0347 and 4.933 and 5.013 and 4.706 and 4.819 and 4.763 and 4.774 (2×) and 4.732
response, Fig_S11e dose-response source data (DRD2 (D2 long receptor) [2]; Log[Drug] -11.52): 4.924 and 5.294 and 5.1115 and 4.785 and 5.303 and 4.761 and 4.741 and 4.765 and 4.928
response, Fig_S11e dose-response source data (DRD2 (D2 long receptor) [2]; Log[Drug] -12): 4.887 and 4.896 and 4.876 and 4.741 and 5.073 and 4.844 and 4.843 and 5.092 and 4.723
Emax (DRD2 (D2 long receptor) [2]; HTLA, read-out: Emax relative to quinpirole response, DRD2, Tango): 54%
EC50 (DRD3 F1063.28A [3]): > 10 µM
EC50 (DRD4 (D4.4 variant) [4]): 7.72 ± 3.42 µM
Emax (DRD4 (D4.4 variant) [4]; [14]): 22.3%
Ki (DRD3 F1063.28A [5]): 0.209 µM
affinity decreased, mutant vs wild type (DRD3 F1063.28A [5]; DRD3 Phe106^3.28Ala vs wild-type DRD3): 1.62 fold
EC50 (DRD2 F1103.28L [6]): 0.00514 ± 0.00134 µM
Emax (DRD2 F1103.28L [6]; read-out: Emax relative to quinpirole response, DRD2 F1103.28L): 79.4%
EC50 (DRD2 (D2 long receptor) [7]; DRD2): 0.0251 ± 0.00415 µM
response, Fig_S11d dose-response source data (DRD2 (D2 long receptor) [7]; Log[Drug] -6.52): 81.714
response, Fig_S11d dose-response source data (DRD2 (D2 long receptor) [7]; Log[Drug] -7): 60.3486 and 66.6804 and 72.7008 and 60.4684 and 68.6286 and 77.0139 and 66.1563 and 80.9789 and 74.7009
response, Fig_S11d dose-response source data (DRD2 (D2 long receptor) [7]; Log[Drug] -7.52): 64.1546 and 42.5815 and 54.9164 and 48.6839 and 50.89 and 54.6944 and 53.231 and 58.2356 and 61.6484
response, Fig_S11d dose-response source data (DRD2 (D2 long receptor) [7]; Log[Drug] -8): 30.3505 and 38.7582 and 38.4468 and 27.6925 and 25.4414 and 37.7886 and 33.6203 and 36.6384 and 38.4211
response, Fig_S11d dose-response source data (DRD2 (D2 long receptor) [7]; Log[Drug] -8.52): 18.8806 and 26.4753 and 29.6239 and 29.8085 and 24.7211 and 36.5506 and 30.7552 and 20.988 and 25.8907
response, Fig_S11d dose-response source data (DRD2 (D2 long receptor) [7]; Log[Drug] -9): 10.6977 and 6.477 and 22.1503 and -4.7682 and 5.553 and 28.1427 and 15.0029 and 22.6689 and 22.3633
response, Fig_S11d dose-response source data (DRD2 (D2 long receptor) [7]; Log[Drug] -9.52): 13.483 and 14.7978 and 22.2541 and 0.3305 and -1.0989 and 21.5583 and 10.5969 and 17.6134 and 23.573
response, Fig_S11d dose-response source data (DRD2 (D2 long receptor) [7]; Log[Drug] -10): 5.075 and 27.3403 and 11.8049 and -5.4661 and -6.0063 and 15.8293 and -4.1493 and 12.6598 and 11.3991
response, Fig_S11d dose-response source data (DRD2 (D2 long receptor) [7]; Log[Drug] -10.52): 26.6829 and 14.6767 and 28.6205 and 3.955 and -0.615 and 13.1617 and 5.592 and 6.484 and 18.0973
response, Fig_S11d dose-response source data (DRD2 (D2 long receptor) [7]; Log[Drug] -11): 14.0885 and 21.7351 and 14.8497 and 2.548 and 0.2179 and 18.1479 and 4.5736 and 10.5841 and 33.4421
response, Fig_S11d dose-response source data (DRD2 (D2 long receptor) [7]; Log[Drug] -11.52): 14.3134 and 21.1815 and -2.3983 and 1.163 and 10.5955 and 20.3089 and -4.0602 and -1.4624 and 2.396
response, Fig_S11d dose-response source data (DRD2 (D2 long receptor) [7]; Log[Drug] -12): -12.3977 and -4.8203 and -3.3671 and -5.6011 and 0.2067 and 18.6656 and 6.267 and -13.7 and 1.135
Emax (DRD2 (D2 long receptor) [7]; HEK-293T, read-out: Emax relative to quinpirole response, DRD2, cAMP inhibition): 93.5%
EC50 (DRD2 F1103.28L [8]): 0.0832 µM
Emax (DRD2 F1103.28L [8]; [14]): 12.9%
Ki [9]: 3.47 µM
Ki [10]: 1.44 µM
EC50 (DRD4 (D4.4 variant) [11]): > 10 µM
Ki (DRD3 wild-type; DRD3 wild-type, read-out: pKi ± SEM (converted)): 0.126 µM
EC50 (DRD2 F1103.28A [12]): > 10 µM
EC50 (DRD3): 2.57 ± 0.331 µM
Emax (DRD3; [14]): 12.6%
Ki (DRD2 F1103.28A [13]; read-out: pKi ± SEM (converted)): 0.174 µM
affinity increase (binding enhanced), mutant vs wild type (DRD2 F1103.28A [13]; DRD2 Phe110^3.28Ala vs wild-type DRD2): 8.47 fold

CCOc1cccc2cc(C(C)NCC3(O)CC3)oc12.Cl (racemic) [O4LE3]
EC50 (DRD2 F1103.28A [1]): > 10 µM
Emax relative to quinpirole response (DRD2 (D2 long receptor) [2]; DRD2, Tango): 9.29%
EC50 (DRD2 (D2 long receptor) [2]; DRD2): 8.85 ± 2.62 µM
EC50 (DRD3 F1063.28A [3]; DRD3 F1063.28A, Tango, read-out: EC50 ± SEM): > 10 µM
EC50 (DRD4 (D4.4 variant) [4]): > 10 µM
Ki (DRD3 F1063.28A [5]; DRD3 F1063.28A, read-out: Ki): > 10 µM
EC50 (DRD2 F1103.28L [6]): > 10 µM
EC50 (DRD2 (D2 long receptor) [7]; DRD2): > 10 µM
EC50 (DRD2 F1103.28L [8]): > 10 µM
Ki [9]: > 10 µM
Ki [10]: > 10 µM
EC50 (DRD4 (D4.4 variant) [11]): > 10 µM
Ki (DRD3 wild-type; DRD3, [3H]-methylspiperone (0.8-1.0 nM), read-out: Ki): 4.37 µM
pKi ± SEM (DRD3 wild-type; DRD3 wild-type): 5.36±0.31
EC50 (DRD2 F1103.28A [12]): > 10 µM
EC50 (DRD3): > 10 µM
Ki (DRD2 F1103.28A [13]; read-out: Ki): > 10 µM
